Test system: Mild to Moderate Osteoarthritis of the Knee
Assay: Phase 2 study: WOMAC joint stiffness subscale score
Type: in vivo, human
Conditions: for Change of WOMAC Joint Stiffness score from baseline (±SEM), adjusted by […] of the Testing Drug Amount / Percentage of improvement from baseline, WOMAC Joint Stiffness score, adjusted by […] of the Testing Drug Amount / Change of WOMAC Joint Stiffness score from baseline (±SEM) / Percentage of improvement from baseline, WOMAC Joint Stiffness score: 35 mg/knee (BID); for Change of WOMAC Joint Stiffness score from baseline (±SEM) / Percentage of improvement from baseline, WOMAC Joint Stiffness score: all patients taken as active; for WOMAC Joint Stiffness Subscale Score, Avg.: Avg. of all patients; for WOMAC Joint Stiffness Subscale Score, Avg. / WOMAC Joint Stiffness Subscale Score: blinded; for WOMAC Joint Stiffness Subscale Score: individual patient
Text: This is a Phase 2, multicenter, randomized, double blind (within dose), placebo controlled, parallel group, proof of concept, and dose range finding study to evaluate the efficacy, safety, and PK of 2-(diethylamino)ethyl 2-(4-isobutylphenyl)propionate hydrochloride spray in adult subjects with clinically symptomatic mild to moderate OA of the knee. For subjects with bilateral knee pain, both knees will be treated, but the most symptomatic knee (i.e., the most painful knee as measured by the Western Ontario and McMaster University Osteoarthritis Index [WOMAC® 3.1] pain subscale score at Screening) will be designated as the target knee for efficacy analyses. For subjects with unilateral knee pain, only the symptomatic (target) knee will be treated.
After a Screening Period of up to 3 weeks and radiographic evaluation of the target knee joint space, a subject will be randomly assigned to 1 of 3 treatment groups in a 1:1:1 ratio with a 2:1 ratio of active:placebo within each treatment group (ie, 2 subjects to active treatment and 1 subject to placebo): • Group A: 8.75 mg 2-(diethylamino)ethyl 2-(4-isobutylphenyl)propionate/knee (2 sprays/knee, one spray to the medial surface and one spray to the lateral surface of the knee), twice daily (BID, approximately every 12 hours; n=50) or placebo (2 sprays/knee), BID (approximately every 12 hours; n=25) for a total of 4 sprays per knee per day; • Group B: 17.5 mg 2-(diethylamino)ethyl 2-(4-isobutylphenyl)propionate/knee (4 sprays/knee, one spray to the medial surface and one spray to the lateral surface of the knee, and one spray to front and one spray to the back of the knee), BID (approximately every 12 hours; n=50) or placebo (4 sprays/knee), BID (approximately every 12 hours; n=25) for a total of 8 sprays per knee per day; • Group C: 35 mg 2-(diethylamino)ethyl 2-(4-isobutylphenyl)propionate/knee (8 sprays/knee, each spray is to be applied to a different non-overlapping area around the knee, and the areas are to be uniformly distributed around the knee), BID (approximately every 12 hours; n=50) or placebo (8 sprays/knee), BID (approximately every 12 hours; n=25) for a total of 16 sprays per knee per day.
The VAS version of the WOMAC will be used for the Primary and Secondary Efficacy Endpoints. Efficacy endpoints will be assessed at Screening and Baseline (Day 1) and at the Week 2, Week 4, Week 8, and Week 12/EOS visits.
3.9.2. Secondary Efficacy Endpoints: • 1. Change from Baseline in the WOMAC (VAS) pain subscale score for the target knee at 2, 4, and 8 weeks of treatment; • 2. Change from Baseline in the WOMAC (VAS) stiffness subscale scores for the target knee and WOMAC (VAS) functional ability subscale scores at 2, 4, 8, and 12 weeks of treatment; • 3. Change from Baseline in the overall WOMAC (VAS) score at 2, 4, 8, and 12 weeks of treatment.
The Secondary Efficacy Endpoints, change from Baseline in the WOMAC subscale scores for pain, stiffness, and functional ability, and overall WOMAC score at 2, 4, 8, and 12 weeks of treatment, will be analyzed using the same methods as for the Primary Efficacy Endpoint.
To determine this, we assumed that all patients received 2-(diethylamino)ethyl 2-(4-isobutylphenyl)propionate, active drug treatment (i.e. all patients who received 2-(diethylamino)ethyl 2-(4-isobutylphenyl)propionate or placebo treatment for 12 weeks or mixed up treatment during the 12-week treatment, as 2-(diethylamino)ethyl 2-(4-isobutylphenyl)propionate-treated). Based on this assumption, that is, to treat this trial as an open-label study and that all patients received active treatment, we conducted efficacy analysis using top-line efficacy datasets prepared by CRO and the re-analysis results are presented in the following tables (Tables 29-47). […] (William G. Bensen, Justus J. Fiechtner, James 1. McMillen, et. al. Treatment of Osteoarthritis with Celecoxib. Mayo Clin Proc, November 1999. Vol 74, 1095-1105.)

[1] = Middle Dose (4 spray/knee, 17.5 mg/knee) Cohort, Day 1
[2] = Middle Dose (4 spray/knee, 17.5 mg/knee) Cohort, Week 2

CCN(CC)CCOC(=O)C(C)c1ccc(CC(C)C)cc1 (centres unmarked) [2-(diethylamino)ethyl 2-(4-isobutylphenyl)propionate]
Change of WOMAC Joint Stiffness score from baseline (±SEM), adjusted by […] of the Testing Drug Amount (Week 8 (day 56)): −36.9(±5.8) mm
Percentage of improvement from baseline, WOMAC Joint Stiffness score, adjusted by […] of the Testing Drug Amount (Week 8 (day 56)): −59.3%
Change of WOMAC Joint Stiffness score from baseline (±SEM) (Week 8 (day 56)): −21.5(±3.4) mm
Percentage of improvement from baseline, WOMAC Joint Stiffness score (Week 8 (day 56)): −34.6%
Change of WOMAC Joint Stiffness score from baseline (±SEM), adjusted by […] of the Testing Drug Amount (Week 12 (day 84)): −41.2(±5.7) mm
Percentage of improvement from baseline, WOMAC Joint Stiffness score, adjusted by […] of the Testing Drug Amount (Week 12 (day 84)): −66.2%
Change of WOMAC Joint Stiffness score from baseline (±SEM) (Week 12 (day 84)): −24.0(±3.3) mm
Percentage of improvement from baseline, WOMAC Joint Stiffness score (Week 12 (day 84)): −38.6%
reduction of Stiffness WOMAC from baseline to week 12 (5 patients on second batch active drug kits): 58.6-100%
WOMAC Joint Stiffness Subscale Score, Avg. (35 mg/knee (8 spray/knee), Day 1): 62.1
WOMAC Joint Stiffness Subscale Score, Avg. (35 mg/knee (8 spray/knee), Follow-up): 37.7
WOMAC Joint Stiffness Subscale Score, Avg. (35 mg/knee (8 spray/knee), Week 2): 50.8
WOMAC Joint Stiffness Subscale Score, Avg. (35 mg/knee (8 spray/knee), Week 4): 44.5
WOMAC Joint Stiffness Subscale Score, Avg. (35 mg/knee (8 spray/knee), Week 8): 40.6
WOMAC Joint Stiffness Subscale Score, Avg. (35 mg/knee (8 spray/knee), Week 12): 38.1
WOMAC Joint Stiffness Subscale Score, Avg. [1]: 68.0
WOMAC Joint Stiffness Subscale Score, Avg. (Middle Dose (4 spray/knee, 17.5 mg/knee) Cohort, Follow-up): 41.9
WOMAC Joint Stiffness Subscale Score, Avg. [2]: 49.2
WOMAC Joint Stiffness Subscale Score, Avg. (Middle Dose (4 spray/knee, 17.5 mg/knee) Cohort, Week 4): 44.7
WOMAC Joint Stiffness Subscale Score, Avg. (Middle Dose (4 spray/knee, 17.5 mg/knee) Cohort, Week 8): 41.5
WOMAC Joint Stiffness Subscale Score, Avg. (Middle Dose (4 spray/knee, 17.5 mg/knee) Cohort, Week 12): 38.2
WOMAC Joint Stiffness Subscale, WOMAC VAS Score (Patient 1056, second batch active drug kits, Day 1): 48.5 mm
WOMAC Joint Stiffness Subscale, WOMAC VAS Score (Patient 1056, second batch active drug kits, Follow Up): 17.0 mm
WOMAC Joint Stiffness Subscale, WOMAC VAS Score (Patient 1056, second batch active drug kits, Week 2): 45.0 mm
WOMAC Joint Stiffness Subscale, WOMAC VAS Score (Patient 1056, second batch active drug kits, Week 4): 44.5 mm
WOMAC Joint Stiffness Subscale, WOMAC VAS Score (Patient 1056, second batch active drug kits, Week 8): 43.5 mm
WOMAC Joint Stiffness Subscale, WOMAC VAS Score (Patient 1056, second batch active drug kits, Week 12): 23.5 mm
WOMAC Joint Stiffness Subscale, WOMAC VAS Score (Patient 1064, second batch active drug kits, Day 1): 66.5 mm
WOMAC Joint Stiffness Subscale, WOMAC VAS Score (Patient 1064, second batch active drug kits, Follow Up): 1.0 mm
WOMAC Joint Stiffness Subscale, WOMAC VAS Score (Patient 1064, second batch active drug kits, Week 2): 20.5 mm
WOMAC Joint Stiffness Subscale, WOMAC VAS Score (Patient 1064, second batch active drug kits, Week 4): 12.5 mm
WOMAC Joint Stiffness Subscale, WOMAC VAS Score (Patient 1064, second batch active drug kits, Week 8): 0.0 mm
WOMAC Joint Stiffness Subscale, WOMAC VAS Score (Patient 1064, second batch active drug kits, Week 12): 1.0 mm
WOMAC Joint Stiffness Subscale, WOMAC VAS Score (Patient 1535, second batch active drug kits, Day 1): 55.0 mm
WOMAC Joint Stiffness Subscale, WOMAC VAS Score (Patient 1535, second batch active drug kits, Follow Up): 0.0 mm
WOMAC Joint Stiffness Subscale, WOMAC VAS Score (Patient 1535, second batch active drug kits, Week 2): 3.5 mm
WOMAC Joint Stiffness Subscale, WOMAC VAS Score (Patient 1535, second batch active drug kits, Week 4): 3.0 mm
WOMAC Joint Stiffness Subscale, WOMAC VAS Score (Patient 1535, second batch active drug kits, Week 8): 3.0 mm
WOMAC Joint Stiffness Subscale, WOMAC VAS Score (Patient 1535, second batch active drug kits, Week 12): 0.0 mm
WOMAC Joint Stiffness Subscale, WOMAC VAS Score (Patient 1539, second batch active drug kits, Day 1): 70.0 mm
WOMAC Joint Stiffness Subscale, WOMAC VAS Score (Patient 1539, second batch active drug kits, Follow Up): 2.0 mm
WOMAC Joint Stiffness Subscale, WOMAC VAS Score (Patient 1539, second batch active drug kits, Week 2): 54.5 mm
WOMAC Joint Stiffness Subscale, WOMAC VAS Score (Patient 1539, second batch active drug kits, Week 4): 44.0 mm
WOMAC Joint Stiffness Subscale, WOMAC VAS Score (Patient 1539, second batch active drug kits, Week 8): 8.0 mm
WOMAC Joint Stiffness Subscale, WOMAC VAS Score (Patient 1539, second batch active drug kits, Week 12): 3.0 mm
WOMAC Joint Stiffness Subscale, WOMAC VAS Score (Patient 9032, second batch active drug kits, Day 1): 14.5 mm
WOMAC Joint Stiffness Subscale, WOMAC VAS Score (Patient 9032, second batch active drug kits, Follow Up): 9.5 mm
WOMAC Joint Stiffness Subscale, WOMAC VAS Score (Patient 9032, second batch active drug kits, Week 2): 9.5 mm
WOMAC Joint Stiffness Subscale, WOMAC VAS Score (Patient 9032, second batch active drug kits, Week 4): 5.0 mm
WOMAC Joint Stiffness Subscale, WOMAC VAS Score (Patient 9032, second batch active drug kits, Week 8): 3.0 mm
WOMAC Joint Stiffness Subscale, WOMAC VAS Score (Patient 9032, second batch active drug kits, Week 12): 6.0 mm
WOMAC Joint Stiffness Subscale Score [1]: 64.5
WOMAC Joint Stiffness Subscale Score [2]: 62.0

Reference: US20240024273A1, “TOPICAL ADMINISTRATION OF 2-(DIETHYLAMINO)ETHYL 2-(4-ISOBUTYLPHENYL)PROPRIONATE FOR TREATMENT OF DISEASES” (TECHFIELDS PHARMA CO., LTD., priority 2020, published 2024)
